Data as given in the kinase profiling compilation of Christmann-Franck et al. (2016).
One block for each molecule: values may come before it.

What was measured:
Assay in all cases: KINOMEscan competition binding
Settings in all cases: compound 10.0 µM
[1] = biological target: INSRR (human) (UniProt P14616)
[2] = tested on: FGFR3 (human), P22607 [G697C]
[3] = biological target: FLT4 (human) (UniProt P35916)
[4] = biological target: FES (human) (UniProt P07332)
[5] = biological target: CDKL2 (human) (UniProt Q92772)
[6] = biological target: IGF1R (human) (UniProt P08069)
[7] = biological target: SIK1 (human) (UniProt P57059)
[8] = biological target: MUSK (human) (UniProt O15146)
[9] = biological target: SRPK1 (human) (UniProt Q96SB4)
[10] = biological target: CDK15 (human) (UniProt Q96Q40)
[11] = biological target: EPHA8 (human) (UniProt P29322)
[12] = biological target: ROCK2 (human) (UniProt O75116)
[13] = biological target: MET (human) (UniProt P08581)
[14] = biological target: PDPK1 (human) (UniProt O15530)
[15] = biological target: PAK2 (human) (UniProt Q13177)
[16] = biological target: MYO3A (human) (UniProt Q8NEV4)
[17] = biological target: NEK9 (human) (UniProt Q8TD19)
[18] = biological target: NUAK1 (human) (UniProt O60285)
[19] = biological target: TLK2 (human) (UniProt Q86UE8)
[20] = biological target: ERBB2 (human) (UniProt P04626)
[21] = biological target: ACVRL1 (human) (UniProt P37023)
[22] = biological target: ANKK1 (human) (UniProt Q8NFD2)
[23] = biological target: HCK (human) (UniProt P08631)
[24] = biological target: IKBKE (human) (UniProt Q14164)
[25] = biological target: CAMK1G (human) (UniProt Q96NX5)
[26] = biological target: LTK (human) (UniProt P29376)
[27] = biological target: TEC (human) (UniProt P42680)
[28] = biological target: SYK (human) (UniProt P43405)
[29] = biological target: STK36 (human) (UniProt Q9NRP7)
[30] = biological target: CDK2 (human) (UniProt P24941)
[31] = biological target: NLK (human) (UniProt Q9UBE8)
[32] = biological target: SGK110 (human) (UniProt P0C264)
[33] = biological target: CSNK1A1L (human) (UniProt Q8N752)
[34] = tested on: ABL1 (human), P00519 [M351T]
[35] = biological target: CAMK2A (human) (UniProt Q9UQM7)
[36] = biological target: CDK17 (human) (UniProt Q00537)
[37] = biological target: RPS6KA1 KD1 (human) (UniProt Q15418)
[38] = biological target: ROS1 (human) (UniProt P08922)
[39] = biological target: PTK2 (human) (UniProt Q05397)
[40] = biological target: YES1 (human) (UniProt P07947)
[41] = biological target: MST4 (human) (UniProt Q9P289)
[42] = tested on: ABL1 (human), P00519 [T315I]
[43] = biological target: ALK (human) (UniProt Q9UM73)

Chain of TEC (human) (P42680 whole entry, looked up): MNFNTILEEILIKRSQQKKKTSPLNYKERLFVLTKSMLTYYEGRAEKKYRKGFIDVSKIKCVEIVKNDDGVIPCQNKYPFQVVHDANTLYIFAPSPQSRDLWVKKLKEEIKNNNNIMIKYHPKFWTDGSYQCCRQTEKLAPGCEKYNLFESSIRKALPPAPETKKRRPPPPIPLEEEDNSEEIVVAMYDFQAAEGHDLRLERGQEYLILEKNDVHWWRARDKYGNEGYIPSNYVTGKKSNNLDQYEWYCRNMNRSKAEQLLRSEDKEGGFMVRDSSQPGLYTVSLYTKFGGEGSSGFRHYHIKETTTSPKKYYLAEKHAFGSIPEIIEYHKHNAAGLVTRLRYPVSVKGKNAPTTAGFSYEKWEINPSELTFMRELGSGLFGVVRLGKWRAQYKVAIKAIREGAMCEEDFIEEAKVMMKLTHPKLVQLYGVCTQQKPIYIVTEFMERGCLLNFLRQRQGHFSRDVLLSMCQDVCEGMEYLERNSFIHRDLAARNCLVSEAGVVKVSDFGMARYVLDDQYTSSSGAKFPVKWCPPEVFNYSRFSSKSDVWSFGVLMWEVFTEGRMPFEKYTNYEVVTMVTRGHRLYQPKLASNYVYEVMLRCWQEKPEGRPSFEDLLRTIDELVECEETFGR
Chain of YES1 (human) (P07947 whole entry, looked up): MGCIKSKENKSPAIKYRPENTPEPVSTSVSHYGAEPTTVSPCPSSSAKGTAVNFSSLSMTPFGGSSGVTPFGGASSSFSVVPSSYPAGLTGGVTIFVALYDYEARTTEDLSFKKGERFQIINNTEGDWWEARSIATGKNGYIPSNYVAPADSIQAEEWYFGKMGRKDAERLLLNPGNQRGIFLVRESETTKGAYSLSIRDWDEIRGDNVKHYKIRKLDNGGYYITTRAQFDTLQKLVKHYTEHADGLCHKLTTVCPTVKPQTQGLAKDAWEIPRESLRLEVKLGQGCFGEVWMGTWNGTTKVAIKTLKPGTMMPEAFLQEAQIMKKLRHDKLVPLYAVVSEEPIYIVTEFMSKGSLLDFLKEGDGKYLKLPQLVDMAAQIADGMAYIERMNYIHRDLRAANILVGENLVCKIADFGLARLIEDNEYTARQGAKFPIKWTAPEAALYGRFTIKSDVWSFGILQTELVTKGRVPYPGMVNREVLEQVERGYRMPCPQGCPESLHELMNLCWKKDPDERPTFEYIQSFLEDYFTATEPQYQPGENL
Chain of ROS1 (human) (P08922 whole entry, looked up): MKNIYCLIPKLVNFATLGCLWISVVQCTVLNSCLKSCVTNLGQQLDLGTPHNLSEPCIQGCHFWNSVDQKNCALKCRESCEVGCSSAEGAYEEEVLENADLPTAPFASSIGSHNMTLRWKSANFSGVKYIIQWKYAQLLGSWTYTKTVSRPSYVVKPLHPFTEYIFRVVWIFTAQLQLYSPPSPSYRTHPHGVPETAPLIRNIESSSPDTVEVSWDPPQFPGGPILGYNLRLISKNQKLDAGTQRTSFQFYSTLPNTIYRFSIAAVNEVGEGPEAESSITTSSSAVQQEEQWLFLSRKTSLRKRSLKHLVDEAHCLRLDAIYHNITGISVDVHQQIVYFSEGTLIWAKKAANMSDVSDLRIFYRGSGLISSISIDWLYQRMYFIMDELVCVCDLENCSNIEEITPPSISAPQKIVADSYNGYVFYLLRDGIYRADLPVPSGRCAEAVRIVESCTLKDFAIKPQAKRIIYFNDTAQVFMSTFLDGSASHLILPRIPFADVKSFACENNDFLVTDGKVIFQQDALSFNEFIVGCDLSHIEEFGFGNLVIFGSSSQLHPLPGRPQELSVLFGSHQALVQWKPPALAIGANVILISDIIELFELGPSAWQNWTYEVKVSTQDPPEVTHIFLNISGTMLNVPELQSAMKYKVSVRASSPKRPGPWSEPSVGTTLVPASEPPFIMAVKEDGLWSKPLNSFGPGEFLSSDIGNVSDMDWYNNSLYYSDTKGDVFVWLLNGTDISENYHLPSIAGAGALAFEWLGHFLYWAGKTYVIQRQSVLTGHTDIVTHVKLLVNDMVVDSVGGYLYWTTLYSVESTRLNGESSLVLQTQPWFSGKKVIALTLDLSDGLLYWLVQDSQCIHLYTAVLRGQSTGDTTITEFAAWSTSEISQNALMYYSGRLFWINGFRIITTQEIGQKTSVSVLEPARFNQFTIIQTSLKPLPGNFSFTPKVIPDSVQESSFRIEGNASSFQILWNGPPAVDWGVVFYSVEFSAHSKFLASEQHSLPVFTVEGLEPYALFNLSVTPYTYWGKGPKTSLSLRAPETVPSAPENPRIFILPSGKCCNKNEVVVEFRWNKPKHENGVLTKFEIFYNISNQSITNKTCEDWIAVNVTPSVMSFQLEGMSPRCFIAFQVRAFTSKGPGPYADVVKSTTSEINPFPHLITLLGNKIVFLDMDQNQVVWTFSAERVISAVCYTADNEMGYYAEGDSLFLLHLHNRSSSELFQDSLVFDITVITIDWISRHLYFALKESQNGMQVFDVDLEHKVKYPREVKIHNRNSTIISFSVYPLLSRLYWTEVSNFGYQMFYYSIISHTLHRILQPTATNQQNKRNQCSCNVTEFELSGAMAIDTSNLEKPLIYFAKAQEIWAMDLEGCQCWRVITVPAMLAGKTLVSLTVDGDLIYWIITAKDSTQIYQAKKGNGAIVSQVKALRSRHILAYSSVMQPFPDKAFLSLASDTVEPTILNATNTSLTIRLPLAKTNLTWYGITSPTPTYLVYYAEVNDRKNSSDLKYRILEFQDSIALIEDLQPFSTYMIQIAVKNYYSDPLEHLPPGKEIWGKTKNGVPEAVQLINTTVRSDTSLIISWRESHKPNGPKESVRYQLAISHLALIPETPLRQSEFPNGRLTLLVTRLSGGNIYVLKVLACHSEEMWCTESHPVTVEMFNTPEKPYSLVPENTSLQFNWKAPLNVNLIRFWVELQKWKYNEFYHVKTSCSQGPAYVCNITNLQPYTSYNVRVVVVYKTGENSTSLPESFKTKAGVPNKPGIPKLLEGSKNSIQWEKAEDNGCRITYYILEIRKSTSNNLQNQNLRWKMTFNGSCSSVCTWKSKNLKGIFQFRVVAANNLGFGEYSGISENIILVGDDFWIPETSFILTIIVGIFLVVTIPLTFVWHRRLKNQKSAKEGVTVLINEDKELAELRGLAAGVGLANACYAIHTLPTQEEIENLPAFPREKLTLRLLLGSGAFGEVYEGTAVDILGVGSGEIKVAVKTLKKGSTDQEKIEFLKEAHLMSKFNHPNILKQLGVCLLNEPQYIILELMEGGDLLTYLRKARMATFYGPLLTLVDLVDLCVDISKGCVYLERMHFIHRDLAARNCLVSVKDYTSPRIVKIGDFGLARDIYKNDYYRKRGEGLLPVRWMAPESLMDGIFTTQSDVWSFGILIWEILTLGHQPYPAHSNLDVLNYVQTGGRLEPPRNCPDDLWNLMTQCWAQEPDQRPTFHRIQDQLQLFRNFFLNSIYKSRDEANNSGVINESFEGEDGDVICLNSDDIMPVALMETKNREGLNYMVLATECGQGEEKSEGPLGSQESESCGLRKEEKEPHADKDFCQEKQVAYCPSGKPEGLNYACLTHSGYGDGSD
Chain of FLT4 (human) (P35916 whole entry, looked up): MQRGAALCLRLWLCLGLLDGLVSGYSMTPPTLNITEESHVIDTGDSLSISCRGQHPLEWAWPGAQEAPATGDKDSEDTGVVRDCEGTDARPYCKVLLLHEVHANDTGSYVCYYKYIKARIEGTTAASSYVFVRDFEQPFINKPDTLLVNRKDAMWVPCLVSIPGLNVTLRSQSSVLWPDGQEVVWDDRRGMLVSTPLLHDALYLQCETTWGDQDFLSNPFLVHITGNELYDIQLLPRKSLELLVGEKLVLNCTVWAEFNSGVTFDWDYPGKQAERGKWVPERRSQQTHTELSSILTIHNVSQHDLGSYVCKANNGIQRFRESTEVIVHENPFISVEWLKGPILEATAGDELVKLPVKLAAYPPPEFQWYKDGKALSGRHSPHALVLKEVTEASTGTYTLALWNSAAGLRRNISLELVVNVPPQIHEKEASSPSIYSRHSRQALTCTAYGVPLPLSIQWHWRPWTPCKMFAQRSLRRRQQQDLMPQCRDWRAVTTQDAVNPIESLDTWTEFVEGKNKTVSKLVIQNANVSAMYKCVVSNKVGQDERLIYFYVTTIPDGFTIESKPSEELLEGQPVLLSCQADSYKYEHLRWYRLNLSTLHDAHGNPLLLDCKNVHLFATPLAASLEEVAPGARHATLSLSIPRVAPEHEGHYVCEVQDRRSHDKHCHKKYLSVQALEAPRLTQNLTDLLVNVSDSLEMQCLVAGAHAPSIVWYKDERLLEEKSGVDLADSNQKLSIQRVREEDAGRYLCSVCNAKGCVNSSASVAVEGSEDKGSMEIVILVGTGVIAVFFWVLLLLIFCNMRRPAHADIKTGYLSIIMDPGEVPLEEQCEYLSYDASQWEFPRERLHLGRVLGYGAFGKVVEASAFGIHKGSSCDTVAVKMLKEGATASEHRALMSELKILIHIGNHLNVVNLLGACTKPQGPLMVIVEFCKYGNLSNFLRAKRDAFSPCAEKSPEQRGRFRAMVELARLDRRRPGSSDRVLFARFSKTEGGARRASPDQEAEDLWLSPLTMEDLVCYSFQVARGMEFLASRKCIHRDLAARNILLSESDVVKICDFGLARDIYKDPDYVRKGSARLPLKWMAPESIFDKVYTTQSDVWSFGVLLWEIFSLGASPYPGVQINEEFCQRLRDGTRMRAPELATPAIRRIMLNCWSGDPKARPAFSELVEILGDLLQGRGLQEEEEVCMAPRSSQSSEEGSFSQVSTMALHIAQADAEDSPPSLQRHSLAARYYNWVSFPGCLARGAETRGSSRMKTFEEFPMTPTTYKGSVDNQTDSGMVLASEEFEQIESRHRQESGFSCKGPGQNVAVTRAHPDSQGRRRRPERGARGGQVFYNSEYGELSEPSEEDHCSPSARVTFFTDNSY

kinase still bound, per cent of control [1]: 96%
kinase still bound, per cent of control [2]: 81%
kinase still bound, per cent of control [3]: 100%
kinase still bound, per cent of control [4]: 100%
kinase still bound, per cent of control [5]: 100%
kinase still bound, per cent of control [6]: 100%
kinase still bound, per cent of control [7]: 79%
kinase still bound, per cent of control [8]: 100%
kinase still bound, per cent of control [9]: 100%
kinase still bound, per cent of control [10]: 100%
kinase still bound, per cent of control [11]: 100%
kinase still bound, per cent of control [12]: 86%
kinase still bound, per cent of control [13]: 77%
kinase still bound, per cent of control [14]: 97%
kinase still bound, per cent of control [15]: 81%
kinase still bound, per cent of control [16]: 85%
kinase still bound, per cent of control [18]: 17%
kinase still bound, per cent of control [19]: 100%
kinase still bound, per cent of control [20]: 99%
kinase still bound, per cent of control [21]: 100%
kinase still bound, per cent of control [22]: 100%
kinase still bound, per cent of control [23]: 35%
kinase still bound, per cent of control [24]: 87%
kinase still bound, per cent of control [25]: 91%
kinase still bound, per cent of control [26]: 100%
kinase still bound, per cent of control [27]: 100%
kinase still bound, per cent of control [28]: 61%
kinase still bound, per cent of control [29]: 100%
kinase still bound, per cent of control [30]: 91%
kinase still bound, per cent of control [31]: 74%
kinase still bound, per cent of control [32]: 5.4%
kinase still bound, per cent of control [33]: 98%
kinase still bound, per cent of control [34]: 3%
kinase still bound, per cent of control [35]: 86%
kinase still bound, per cent of control [36]: 90%
kinase still bound, per cent of control [37]: 66%
kinase still bound, per cent of control [38]: 35%
kinase still bound, per cent of control [39]: 75%
kinase still bound, per cent of control [40]: 38%
kinase still bound, per cent of control [41]: 27%
kinase still bound, per cent of control [42]: 3.6%
kinase still bound, per cent of control [43]: 100%
SMILES: CN1C(=O)c2ccccc2N(C)c2nc(Nc3ccc(N4CCC(O)CC4)cc3)ncc21
kinase still bound, per cent of control [17]: 100%

kinase still bound, per cent of control [1]: 78%
kinase still bound, per cent of control [2]: 97%
kinase still bound, per cent of control [3]: 93%
kinase still bound, per cent of control [4]: 93%
kinase still bound, per cent of control [5]: 100%
kinase still bound, per cent of control [6]: 100%
kinase still bound, per cent of control [7]: 88%
kinase still bound, per cent of control [8]: 100%
kinase still bound, per cent of control [9]: 100%
kinase still bound, per cent of control [10]: 99%
kinase still bound, per cent of control [11]: 92%
kinase still bound, per cent of control [12]: 86%
kinase still bound, per cent of control [13]: 90%
kinase still bound, per cent of control [14]: 100%
kinase still bound, per cent of control [15]: 67%
kinase still bound, per cent of control [16]: 54%
kinase still bound, per cent of control [18]: 100%
kinase still bound, per cent of control [19]: 94%
kinase still bound, per cent of control [20]: 92%
kinase still bound, per cent of control [21]: 100%
kinase still bound, per cent of control [22]: 100%
kinase still bound, per cent of control [23]: 100%
kinase still bound, per cent of control [24]: 92%
kinase still bound, per cent of control [25]: 57%
kinase still bound, per cent of control [26]: 100%
kinase still bound, per cent of control [27]: 100%
kinase still bound, per cent of control [28]: 100%
kinase still bound, per cent of control [29]: 100%
kinase still bound, per cent of control [30]: 87%
kinase still bound, per cent of control [31]: 73%
kinase still bound, per cent of control [32]: 100%
kinase still bound, per cent of control [33]: 95%
kinase still bound, per cent of control [34]: 93%
kinase still bound, per cent of control [35]: 80%
kinase still bound, per cent of control [36]: 94%
kinase still bound, per cent of control [37]: 94%
kinase still bound, per cent of control [38]: 29%
kinase still bound, per cent of control [39]: 4.6%
kinase still bound, per cent of control [40]: 99%
kinase still bound, per cent of control [41]: 99%
kinase still bound, per cent of control [42]: 100%
kinase still bound, per cent of control [43]: 36%
SMILES: COc1cc(N2CCC(O)CC2)ccc1Nc1ncc2c(n1)N1CCc3cccc(c31)C(=O)N2C
kinase still bound, per cent of control [17]: 77%

kinase still bound, per cent of control [1]: 41%
kinase still bound, per cent of control [2]: 84%
kinase still bound, per cent of control [3]: 10%
kinase still bound, per cent of control [4]: 100%
kinase still bound, per cent of control [5]: 9.5%
kinase still bound, per cent of control [6]: 100%
kinase still bound, per cent of control [7]: 27%
kinase still bound, per cent of control [8]: 100%
kinase still bound, per cent of control [9]: 100%
kinase still bound, per cent of control [10]: 58%
kinase still bound, per cent of control [11]: 80%
kinase still bound, per cent of control [12]: 48%
kinase still bound, per cent of control [13]: 82%
kinase still bound, per cent of control [14]: 82%
kinase still bound, per cent of control [15]: 80%
kinase still bound, per cent of control [16]: 80%
kinase still bound, per cent of control [18]: 63%
kinase still bound, per cent of control [19]: 100%
kinase still bound, per cent of control [20]: 5%
kinase still bound, per cent of control [21]: 81%
kinase still bound, per cent of control [22]: 82%
kinase still bound, per cent of control [23]: 63%
kinase still bound, per cent of control [24]: 97%
kinase still bound, per cent of control [25]: 100%
kinase still bound, per cent of control [26]: 72%
kinase still bound, per cent of control [27]: 87%
kinase still bound, per cent of control [28]: 91%
kinase still bound, per cent of control [29]: 64%
kinase still bound, per cent of control [30]: 100%
kinase still bound, per cent of control [31]: 100%
kinase still bound, per cent of control [32]: 97%
kinase still bound, per cent of control [33]: 100%
kinase still bound, per cent of control [34]: 15%
kinase still bound, per cent of control [35]: 90%
kinase still bound, per cent of control [36]: 93%
kinase still bound, per cent of control [37]: 96%
kinase still bound, per cent of control [38]: 82%
kinase still bound, per cent of control [39]: 73%
kinase still bound, per cent of control [40]: 68%
kinase still bound, per cent of control [41]: 67%
kinase still bound, per cent of control [42]: 46%
kinase still bound, per cent of control [43]: 53%
SMILES: COc1cc(N2CCN(C)CC2)ccc1Nc1ncc2c(n1)Nc1ccccc1NC2=O
kinase still bound, per cent of control [17]: 87%
